The assay deals with TGF-β1platelet-KO-LDLR mice on HFD. Briefly: Aortic stenosis progression in TGF-β1platelet-KO-LDLR mice on HFD, echocardiography. It counts as in vivo. The following applies: TGF-β1platelet-KO-LDLR mice on HFD treated with NAC. The text has this:
Mice. Hypercholesterolemic mice deficient for low-density lipoprotein receptors (Ldlr−/−), which only express ApoB-100 (Ldlr−/−Apob100/100, LDLR), were obtained from Jackson Laboratories (B6; 129SLdlrtm1HerApobtm2Sgy/J, stock no. 003000). WT C57bl/6 mice were also obtained from the Jackson Laboratory (stock no. 000664) and served as controls. TGF-β1^platelet-KO-LDLR mice (Pf4Cre+Tgfb1f/f;Ldlr−/−Apob100/100;) and TGF-β1^flox-LDLR littermate controls (Tgfb1f/f;Ldlr−/−Apob100/100) were generated by crossing LDLR mice with Pf4Cre+;Tgfb1f/f mice, as shown in FIGS. 7A-B and Supplemental Table 5. […]
Experimental Design. […] Progression and severity (mild/moderate/severe) of AS were monitored at 0, 3, 6 and 9 months by echocardiography using non-invasive ultrasound imaging techniques. […]
Echocardiography. […] Electrode gel was used to enhance the physiologic readings. To ensure accuracy of all echo measurements, physiological parameters were monitored and recordings were only taken if the heart rate was 430-550 beats per minute, respiration was 20-100 breaths per minute, and body temperature was close to 37° C. […]
Measurement of AS parameters using a modified view of ultrasound imaging. […] LVOT was measured from the long-axis view and was used to calculate AV pressure and normalize the cusp separation (Lindman et al., 2016; Meyer et al., 2012). […]

Entries after “also recorded” stand apart in the source; their conditions may differ.

For the compound `CC(=O)N[C@@H](CS)C(=O)O` [NAC, N-acetylcysteine], the AS progression result is “little to no further reduction; also recorded: did not show any effect”.

The values are drawn from patent publication US11752122B2 (OKLAHOMA MEDICAL RESEARCH FOUNDATION, priority 2018, dated 2023).
